Experimental data from PMC9916806, “Tachykinin Receptor-Selectivity of the Potential Glioblastoma-Targeted Therapy, DOTA-[Thi^8,Met(O2)^11]-Substance P” (International Journal of Molecular Sciences, 2023).

Tests used:
[1] = system: all three tachykinin receptors (NK1R, NK2R, NK3R); conditions: albeit with differing potencies; ref [11],[13]; cited from earlier work
[2] = system: MRGPRX2; conditions: ref [14]; cited from earlier work
Text: Glioblastoma multiforme is one of the most common and most aggressive forms of central nervous system tumour and, despite therapeutic advances, it remains largely incurable. […] SP is a member of the tachykinin family of neuropeptides, of which the other classical members are neurokinin-A (NKA) and ...

[3] = biological target: T1, NK3R (Homo sapiens, UniProt P29371); assay: IP accumulation assay, NK3R activation (HEK293-T cells); type: cell-based; conditions: 1 µM SP; Supplemental Figure S3, % of cognate native ligand (NKB) response; single experiment (n=1); also ref [11]
T1 construct: host or cells: HEK293-T
T1 sequence (P29371 1-465): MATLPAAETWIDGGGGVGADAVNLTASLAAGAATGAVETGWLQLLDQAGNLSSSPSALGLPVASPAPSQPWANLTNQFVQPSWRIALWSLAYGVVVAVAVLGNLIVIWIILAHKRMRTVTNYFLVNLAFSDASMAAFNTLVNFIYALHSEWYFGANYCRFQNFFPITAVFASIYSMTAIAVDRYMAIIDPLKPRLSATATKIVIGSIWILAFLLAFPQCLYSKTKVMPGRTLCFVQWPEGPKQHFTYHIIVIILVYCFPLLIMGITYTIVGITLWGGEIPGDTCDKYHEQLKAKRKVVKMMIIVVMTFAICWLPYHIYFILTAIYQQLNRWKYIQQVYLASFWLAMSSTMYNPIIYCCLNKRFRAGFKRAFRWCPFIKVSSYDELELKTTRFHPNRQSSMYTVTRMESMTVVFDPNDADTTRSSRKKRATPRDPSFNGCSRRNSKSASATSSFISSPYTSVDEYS
Text: (§1) pcDNA mammalian expression vectors encoding human NK3R (GenBank accession number: AY462098), NK2R (GenBank accession number: AY322545), NK1R (GenBank accession number: AY462099) and MRGPRX2 (GenBank accession number: NM_054030) were obtained from the Bloomsburg University cDNA Resource Center (www.cdna.org [accessed on 18 October 2018]). The NK1R, NK2R and NK3R vectors included an N-terminal 3xHA epitope tag. The empty vector, pcDNA3.1, was obtained from Thermo Fisher Scientific (Waltham, MA, USA). […] Talnetant was kindly supplied by Dr Mike Trower (NeRRe Therapeutics, Stevenage, UK).
(§2) Modified human embryonic kidney cells (HEK293-T; American Tissue and Cell Culture Collection), which provide a ‘blank’ background (with little/no endogenous tachykinin receptor nor MRGPRX2 expression) and stably express large T-antigen for optimal expression of exogenous proteins, were utilised. […]
(§3) The tachykinin receptors elicit intracellular signalling responses primarily through coupling to, and the activation of, Gαq/11 G proteins. […] These can be isolated using ion exchange chromatography and their radioactivity measured, with the amount of radiolabelled IP generated (i.e., the level of radioactivity measured) being proportional to the signalling activity of the receptor [48]. […]

[4] = system: NK1R; conditions: native tachykinins; ref [11],[13]; cited from earlier work
[5] = biological target: T2, NK1R (Homo sapiens, UniProt P25103); assay: IP accumulation assay, NK1R activation (HEK293-T cells); type: cell-based; conditions: HEK293-T cells transfected with NK1R, 1 h at 37 °C, mean ± SEM (n = 3)
T2 construct: host or cells: HEK293-T
T2 sequence (P25103 whole entry): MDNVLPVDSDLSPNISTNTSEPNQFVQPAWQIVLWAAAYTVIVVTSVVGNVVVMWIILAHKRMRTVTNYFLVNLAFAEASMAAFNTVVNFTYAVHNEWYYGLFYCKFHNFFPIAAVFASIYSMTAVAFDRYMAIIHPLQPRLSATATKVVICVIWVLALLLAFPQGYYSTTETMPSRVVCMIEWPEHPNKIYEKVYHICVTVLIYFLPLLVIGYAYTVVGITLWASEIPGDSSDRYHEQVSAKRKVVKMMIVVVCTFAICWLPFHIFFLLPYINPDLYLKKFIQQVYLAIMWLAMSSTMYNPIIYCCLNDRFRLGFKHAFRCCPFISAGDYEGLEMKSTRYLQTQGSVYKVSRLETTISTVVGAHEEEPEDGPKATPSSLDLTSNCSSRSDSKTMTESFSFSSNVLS
Text: as §1, §2, §3

[6] = parameters: method as in PMID 31480582; conditions: ref [19]; cited from earlier work
[7] = ref [29]; cited from earlier work
Text: In glioblastoma multiforme NK1Rs are believed to be highly expressed on the tumour cells and also within the tumour neovasculature, conferring the ability to concurrently target vascular and neoplastic structures. […] However, its therapeutic effectiveness is fairly constra ...

[8] = parameters: method as in PMID 31480582; conditions: ref [19]; cited from earlier work; remark: listed apart in the source
[9] = system: NK3R; parameters: method as in PMID 9190866; conditions: ref [49]; cited from earlier work
Protocol: For single-concentration analyses, cells were incubated with 1 µM [NK1R, NK2R, NK3R and empty vector) or 10 µM [MRGPRX2 and empty vector]

[10] = biological target: T1, NK3R; assay: NK3R antagonism, IP accumulation assay; type: cell-based; conditions: 1 µM compound, 30 min pre-incubation at 37 °C, then 30 nM NKB 1 h; Figure 4; n = 4 (talnetant: two experiments)
Text: as §1
Modified human embryonic kidney cells (HEK293-T; American Tissue and Cell Culture Collection), which provide a ‘blank’ background (with little/no endogenous tachykinin receptor nor MRGPRX2 expression) and stably express large T-antigen for optimal expression of exogenous proteins, were utilised. Cells were cultured in a humidified atmosphere at 37 °C with 5% CO2 in Dulbecco’s Modified Eagle Medium containing GlutaMAX™ (DMEM) (Life Technologies, Carlsbad, CA, USA) supplemented with 10% foetal calf serum (FCS) (Life Technologies, Carlsbad, CA, USA). Cells were passaged regularly to maintain them at less than 80% confluence. […]

Structure (SMILES): CSCC[C@H](NC(=O)[C@H](CC(C)C)NC(=O)CNC(=O)[C@H](Cc1ccccc1)NC(=O)[C@H](Cc1ccccc1)NC(=O)[C@H](CCC(N)=O)NC(=O)[C@H](CCC(N)=O)NC(=O)[C@@H]1CCCN1C(=O)[C@H](CCCCN)NC(=O)[C@@H]1CCCN1C(=O)[C@@H](N)CCCNC(=N)N)C(N)=O [SP, Substance P]
- agonism at all three tachykinin receptors [1]: full agonists
- agonism at MRGPRX2 [2]: low potency agonist
- NK3R response to SP [3]: able to elicit a response
- affinity for NK1R [4]: highest affinity for NK1R

Structure (SMILES): CC(C)C[C@H](NC(=O)CNC(=O)[C@H](Cc1cccs1)NC(=O)[C@H](Cc1ccccc1)NC(=O)[C@H](CCC(N)=O)NC(=O)[C@H](CCC(N)=O)NC(=O)[C@@H]1CCCN1C(=O)[C@H](CCCCN)NC(=O)[C@@H]1CCCN1C(=O)[C@H](CCCNC(=N)N)NC(=O)CN1CCN(CC(=O)O)CCN(CC(=O)O)CCN(CC(=O)O)CC1)C(=O)N[C@@H](CCS(C)(=O)=O)C(N)=O [DOTA-[Thi^8,Met(O2)^11]SP, 1,4,7,10-tetraazacyclododecane-1,4,7,10-tetraacetic acid-[Thi^8,Met(O2)^11]-SP]
- Emax ([5]; HEK-293T, Table 2, % of the maximal response elicited by SP (Figure 3)): 89 ± 1%
- EC50 ([5]; Table 2, comparison of SP with DOTA-[Thi8,Met(O2)11]SP): 3.31 nM
- in vivo half-life compared to native SP [6]: increased lipophilicity and in vivo half-life
- metabolic stability [7]: metabolically stable
- lipophilicity compared to native SP [8]: increased lipophilicity

Structure (SMILES): CC[C@H](NC(=O)c1c(O)c(-c2ccccc2)nc2ccccc12)c1ccccc1 [talnetant, (S)-N-(1-phenylpropyl)-3-hydroxy-2-phenylquinoline-4-carboxamide]
- NK3R antagonism [9]: non-peptide antagonist of the NK3R
- inhibition of NK3R activation [10]: NKB-induced NK3R activation was completely abolished
